Square brackets hold non-standard residues; d marks the D form. Peptide text beside a SMILES is read from it. NIR Reporter Dye A = not defined here; Sta = CC(C)C[C@H](N)[C@@H](O)CC(=O)O; Compound 6 = not defined here
Tests used:
Format in all cases: biochemical
[1] = biological target: human recombinant β-secretase (BACE-1) (Homo sapiens, UniProt P56817); test: BACE-1 enzyme inhibition assay; conditions: 100 nM BACE-1 mixture, 200 nM substrate Structure IV, room temperature 1 hour, Rodbard model
Procedure: The BACE-1 assay buffer consists of 50 mM sodium acetate, 10 mM Tris-HCl, 10 mM NaCl, 0.002% Triton X-100, pH adjusted to 4.5. The BACE-1 stop buffer is a 0.8 M sodium phosphate buffer with 0.25 mg/mL BSA (pH 7.8). A characterized BACE-1 inhibitor, β-secretase inhibitor III, is purchased from Calbiochem (CA) (Cat # 565780). […] Two solid-state diode lasers at 680 nm and 780 nm are used as the excitation light sources and their corresponding fluorescence detection is accomplished by two silicon avalanche photodiodes at 710±10 nm and 810±10 nm. […]
The serially diluted solutions containing the BACE-1 peptide inhibitor (final concentrations from 0 to 2500 nM) were mixed with BACE-1 in BACE-1 assay buffer (total BACE-1 mixture final concentration of 100 nM) for 15 minutes followed by the addition of the BACE-1 protease substrate having Structure IV in a final concentration 200 nM. […] The fluorescence intensity was measured on Aerius® infrared imaging system (FIG. 22A).

[2] = system: human recombinant β-secretase (BACE-1); test: BACE-1 enzyme activity assay; conditions: 200 nM substrate, 400 nM BACE-1 mixture, 100 minutes
Procedure: Purified human recombinant β-secretase (BACE-1) is purchased from Calbiochem (CA). The batch size of 50 μg is supplied as a mixture of the ˜68-70 KDa proenzyme and the ˜65-67 KDa mature enzyme in lyophilized form from sterile-filtered 150 mM NaCl, 50 mM Tris-HCl, pH 7.5. The product is then re-constituted with 100 μL sterile water immediately prior to use.
The BACE-1 assay buffer consists of 50 mM sodium acetate, 10 mM Tris-HCl, 10 mM NaCl, 0.002% Triton X-100, pH adjusted to 4.5. […] A characterized BACE-1 inhibitor, β-secretase inhibitor III, is purchased from Calbiochem (CA) (Cat # 565780). […] Two solid-state diode lasers at 680 nm and 780 nm are used as the excitation light sources and their corresponding fluorescence detection is accomplished by two silicon avalanche photodiodes at 710±10 nm and 810±10 nm. […]
The effect of enzyme concentration on proteolytic activity of the β-secretase (β-site amyloid precursor protein cleaving enzyme 1; BACE-1), is shown in FIGS. 20A-C. […] The enzymatic reaction was stopped by addition of BACE-1 stop buffer and the fluorescence was recorded by Aerius® infrared imaging system. […] Based on the fluorescence standard curve obtained (FIG. 20B), the degree of hydrolysis of BACE-1 peptide was determined as 53%. With increased amount of hydrolysis, higher fluorescence increase is expected.

trypsin = test: NIR-dye labeled casein protease assay with trypsin; conditions: 10 μg/mL aprotinin; 20 nM casein conjugate, 5 μg/mL trypsin
Procedure: Casein-NIR Reporter Dye B concentration is 20 nM, trypsin concentration is 5 μg/mL, and aprotinin concentration varies from 10 μg/mL, 5 μg/mL, 1.25 μg/mL, 0.31 μg/mL, 78 ng/mL, 19.5 ng/mL, 4.9 ng/mL, to 1.2 ng/mL. Trypsin was pre-incubated with the inhibitors for 1 hour at 37° C.
Described below is a general method based on the over labeling of casein, with a near-infrared dye, i.e., NIR Reporter Dye B (a NIR-dye labeled casein substrate), for a protease activity microplate assay. The model protease assay uses the labeled casein as the substrate with trypsin as the enzyme, and the fluorescence emission is measured on a LI-COR® Biosciences' Aerius® microplate reader. NIR Reporter Dye B emits at 786 nm, yet it is still a very bright dye (see, FIG. 10).
The proteolytic reactions are carried out in 96-well plates with 50 mM TRIS buffer pH 7.8. […] (The reagent […] and its protein labeling and purification protocols are from LI-COR® Biosciences. Casein, trypsin, and aprotinin are all purchased from Sigma-Aldrich. Protein molecular weight markers labeled with a 700 nm fluorescence dye are from LI-COR® Biosciences.) The reactants are incubated at 37° C. for one hour and then stopped by adding aprotinin to 10 μg/mL final concentration. Then, after being spun, the plates are read on an the LI-COR® microplate reader Aerius®. […]

BACE-1 protease enzyme = biological target: T1, BACE-1 protease enzyme (Homo sapiens, UniProt P56817); test: Effect of DMSO concentration on BACE-1 enzyme activity; conditions: vs absence of DMSO
T1 construct: purchased Calbiochem
Procedure: In this experiment, the BACE-1 protease substrate having Structure IV (200 nM), was incubated with various amounts of BACE-1 protease enzyme (0 to 100 nM) and DMSO concentrations (e.g., 0, 2, 5 or 10%) at room temperature for 1 hour. The enzymatic reactions were then terminated upon the addition of stop buffer and the fluorescence intensities were measured on an Aerius® imaging system. The addition of stop buffer further diluted the DMSO concentrations in the reaction solution from 0, 2, 5, 10% DMSO to 0, 0.5, 1.25, 2.5%, respectively. The change in fluorescence intensity observed for the different DMSO concentrations is a reflection of the interference of DMSO on the BACE-1 enzyme activity. […] DMSO concentration increase to 5% and 10%, the BACE-1 enzyme activity decreased 20% and 35% respectively of the original enzyme activity at the absence of DMSO throughout the enzyme concentration range.

HIV-1 protease = biological target: T2, HIV-1 protease (Human immunodeficiency virus type 1 group M subtype B, UniProt P04585); test: Effect of DMSO and compound interferences on the HIV-1 protease assay; conditions: DMSO 0%, 2.5%, 5% and 10%; 2.5-80 nM protease
T2 construct: Recombinant HIV-1 protease; purchased BACHEM Biosciences
Procedure: To measure the tolerance of the HIV-1 protease assay to the presence of dimethyl sulfoxide (DMSO), 1 μM of substrate was incubated with 80 nM, 40 nM, 20 nM, 10 nM, 5 nM and 2.5 nM of HIV-1 protease in an assay buffer containing 10%, 5%, 2.5% or 0% DMSO. After incubation at 37° C. for 1.5 hours, the plate was treated with 0.8 M sodium phosphate stop buffer and then scanned on Aerius® System (LI-COR® Biosciences).
The robustness of the protease assay was evaluated against fluorescent, color quenching and light scattering interferences, which are the three major sources of compound interferences in high-throughput fluorescent assay screening. In these experiments, protease activity of the HIV-protease assay of the invention was measured in the presence of various amounts of the interference source and compared to that in the absence of the interference.
Fluorescein, a highly fluorescent compound, was chosen as the model fluorescent compound interference source. A series of fluorescein concentrations were mixed with the HIV-1 peptide substrate in the assay buffer system. These wells were then treated either with the enzyme (positive wells) or without the enzyme (negative wells) and incubated at 37° C. for 1 hour.

T1 sequence (P56817 46-457 limits assumed): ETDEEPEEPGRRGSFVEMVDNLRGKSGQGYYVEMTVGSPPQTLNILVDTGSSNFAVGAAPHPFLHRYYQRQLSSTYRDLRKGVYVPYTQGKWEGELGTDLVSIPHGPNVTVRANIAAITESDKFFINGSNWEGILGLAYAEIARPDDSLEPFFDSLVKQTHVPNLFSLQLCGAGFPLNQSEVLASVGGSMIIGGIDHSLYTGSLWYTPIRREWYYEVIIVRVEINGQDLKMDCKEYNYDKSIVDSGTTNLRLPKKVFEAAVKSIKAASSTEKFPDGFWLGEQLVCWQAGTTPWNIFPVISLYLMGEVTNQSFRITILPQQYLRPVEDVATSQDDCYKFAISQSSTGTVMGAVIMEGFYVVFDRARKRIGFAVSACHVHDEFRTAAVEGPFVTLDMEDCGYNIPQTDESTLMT
Sequence of human recombinant β-secretase (BACE-1) (Homo sapiens, UniProt P56817) (P56817 46-457 limits assumed): as above

CC(C)C[C@H](NC(=O)[C@H](CC(N)=O)NC(=O)[C@@H](NC(=O)[C@@H](N)CCC(=O)O)C(C)C)[C@@H](O)CC(=O)N[C@H](C(=O)N[C@@H](C)C(=O)N[C@@H](CCC(=O)O)C(=O)N[C@@H](Cc1ccccc1)C(N)=O)C(C)C [Statine-derived peptide inhibitor, H-Glu-Val-Asn-Statine-Val-Ala-Glu-Phe-NH2] (H-EVN[Sta]VAEF-NH2)
IC50 [1]: 57 nM

Structure IV: β-secretase (BACE-1) protease substrate peptide conjugated to NIR Reporter Dye A and Compound 6 (SEQ ID NO:5) ({NIR Reporter Dye A}-SEVNLDAEFRK(Compound 6)RR-OH; reading uncertain)
fluorescence intensity increase over substrate not treated by enzyme ([2]; room temperature): 12 fold | degree of hydrolysis of BACE-1 peptide ([2]; from fluorescence standard curve): 53%

aprotinin
fluorescence intensity change between total trypsin activity suppression and no inhibition (trypsin): more than 20 fold

C[S+](C)[O-] [DMSO, dimethyl sulfoxide]
reduction of BACE-1 protease enzyme activity (BACE-1 protease enzyme; DMSO 2%): ≤ 10% | decrease of BACE-1 enzyme activity (BACE-1 protease enzyme; DMSO 5%): 20% | decrease of BACE-1 enzyme activity (BACE-1 protease enzyme; DMSO 10%): 35% | effect on cleavage of peptide substrate (HIV-1 protease): no significant effect

Reference: patent publication US8227621B2, “Cyanine dyes and methods of use” (priority 2005, dated 2012)
